Test results published in PubChem BioAssay (NCI).
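Step 1: Grow cells in 96-well plates. Step 2: Expose to compound for 48 hours at 5 concentrations. Step 3: Interpolate endpoints linearly; if unreached, use highest concentration. The concentration for 50% growth inhibition is given as GI50. Definition used: TGI = concentration required for complete inhibition of growth.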

Experiments:
Assay in all cases: NCI-60 cell line screen, 48 h; in the data active = GI50 below about 0.43 µM; inactive = the rest
ACHN renal = system: ACHN renal
CCRF-CEM leukemia = system: CCRF-CEM leukemia
HOP-92 NSCLC = system: HOP-92 NSCLC
K-562 leukemia = system: K-562 leukemia
SK-MEL-2 melanoma = system: SK-MEL-2 melanoma
SK-MEL-5 melanoma = system: SK-MEL-5 melanoma
U251 CNS = system: U251 CNS
UO-31 renal = system: UO-31 renal
RPMI-8226 leukemia = system: RPMI-8226 leukemia
T-47D breast = system: T-47D breast

O=CC1(C2(C=O)c3ccccc3-c3ccccc32)c2ccccc2-c2ccccc21
4.32 µM: TGI (UO-31 renal)
4.19 µM: TGI (ACHN renal)
11.6 µM: TGI (CCRF-CEM leukemia)
4.02 µM: TGI (SK-MEL-5 melanoma)
3.83 µM: TGI (HOP-92 NSCLC)
5.6 µM: TGI (U251 CNS)
> 22.6 µM: TGI (K-562 leukemia)
4.82 µM: TGI (SK-MEL-2 melanoma)
inactive: GI50 (ACHN renal) 1.83 µM | GI50 (CCRF-CEM leukemia) 3.77 µM | GI50 (HOP-92 NSCLC) 1.58 µM | GI50 (K-562 leukemia) 2.3 µM | GI50 (SK-MEL-2 melanoma) 2 µM | GI50 (SK-MEL-5 melanoma) 1.95 µM | GI50 (U251 CNS) 2.23 µM | GI50 (UO-31 renal) 1.92 µM

CC(C)CC(=O)NS(=O)(=O)c1ccccc1
> 100 µM: TGI (ACHN renal) | TGI (CCRF-CEM leukemia) | TGI (HOP-92 NSCLC) | TGI (K-562 leukemia) | TGI (RPMI-8226 leukemia) | TGI (SK-MEL-2 melanoma) | TGI (U251 CNS) | TGI (UO-31 renal)

CC1=CC2C(C(C)C)CC1C1C(=O)OC(=O)C21 (stereo not drawn)
> 100 µM: TGI (ACHN renal) | TGI (HOP-92 NSCLC) | TGI (K-562 leukemia) | TGI (SK-MEL-2 melanoma) | TGI (SK-MEL-5 melanoma) | TGI (T-47D breast) | TGI (U251 CNS) | TGI (UO-31 renal)

C[C@]12CC[C@H]3[C@@H](C[C@@H]4N=C(c5ccc(O)cc5)S[C@@]45C[C@H](O)CC[C@]35C)[C@@H]1CC[C@@H]2O
67.3 µM: TGI (U251 CNS)
47.2 µM: TGI (CCRF-CEM leukemia)
2.5 µM: TGI (RPMI-8226 leukemia)
active: GI50 (RPMI-8226 leukemia) 0.378 µM
69.4 µM: TGI (SK-MEL-2 melanoma)
inactive: GI50 (ACHN renal) 7.55 µM | GI50 (CCRF-CEM leukemia) 2.05 µM | GI50 (K-562 leukemia) 3.48 µM | GI50 (SK-MEL-2 melanoma) 4.42 µM | GI50 (SK-MEL-5 melanoma) 3.15 µM | GI50 (T-47D breast) 10.3 µM | GI50 (U251 CNS) 2.23 µM | GI50 (UO-31 renal) 2.48 µM
> 100 µM: TGI (ACHN renal) | TGI (K-562 leukemia) | TGI (T-47D breast)
20.4 µM: TGI (UO-31 renal)
13.1 µM: TGI (SK-MEL-5 melanoma)

BrC12c3ccccc3Sc3ccccc3C1(Br)c1ccccc12 (stereo not drawn)
50.1 µM: TGI (CCRF-CEM leukemia)
36.4 µM: TGI (RPMI-8226 leukemia)
> 100 µM: TGI (ACHN renal) | TGI (K-562 leukemia) | TGI (UO-31 renal)
34.5 µM: TGI (SK-MEL-2 melanoma)
30.8 µM: TGI (SK-MEL-5 melanoma)
33.7 µM: TGI (U251 CNS)
60.5 µM: TGI (HOP-92 NSCLC)

CC(Oc1ccc2cc(C(=O)c3ccccc3)c(=O)oc2c1)C(=O)O (stereo not drawn)
> 100 µM: TGI (ACHN renal) | TGI (CCRF-CEM leukemia) | TGI (HOP-92 NSCLC) | TGI (K-562 leukemia) | TGI (SK-MEL-5 melanoma) | TGI (U251 CNS) | TGI (UO-31 renal)

COc1ccc(CC2C3=C(CCCC3)CCN2C)cc1 (stereo not drawn)
> 100 µM: TGI (ACHN renal) | TGI (CCRF-CEM leukemia) | TGI (K-562 leukemia) | TGI (RPMI-8226 leukemia) | TGI (SK-MEL-2 melanoma) | TGI (SK-MEL-5 melanoma) | TGI (T-47D breast) | TGI (U251 CNS) | TGI (UO-31 renal)

O=C1c2ccccc2C(=O)c2c1ccc1c2OCO1
> 100 µM: TGI (HOP-92 NSCLC) | TGI (RPMI-8226 leukemia) | TGI (SK-MEL-2 melanoma) | TGI (SK-MEL-5 melanoma) | TGI (T-47D breast) | TGI (U251 CNS) | TGI (UO-31 renal)

Cc1ccc(S(=O)(=O)n2cc(-c3nnnn3-c3ccc(Cl)cc3)c(=O)c3ccccc32)cc1
inactive: GI50 (ACHN renal) > 100 µM | GI50 (CCRF-CEM leukemia) 43.4 µM | GI50 (K-562 leukemia) 20.1 µM | GI50 (RPMI-8226 leukemia) 21.9 µM | GI50 (SK-MEL-2 melanoma) > 100 µM | GI50 (SK-MEL-5 melanoma) 70.6 µM | GI50 (T-47D breast) 57.9 µM | GI50 (U251 CNS) 88.6 µM | GI50 (UO-31 renal) 52.5 µM
> 100 µM: TGI (ACHN renal) | TGI (CCRF-CEM leukemia) | TGI (K-562 leukemia) | TGI (SK-MEL-2 melanoma) | TGI (SK-MEL-5 melanoma) | TGI (T-47D breast) | TGI (U251 CNS) | TGI (UO-31 renal)
59 µM: TGI (RPMI-8226 leukemia)

CC(=O)OCC1OC(Sc2ccccn2)C=CC1OC(C)=O (stereo not drawn)
> 100 µM: TGI (ACHN renal) | TGI (CCRF-CEM leukemia) | TGI (HOP-92 NSCLC) | TGI (K-562 leukemia) | TGI (SK-MEL-5 melanoma) | TGI (U251 CNS) | TGI (UO-31 renal)

COc1cc(-c2cc(CCC(=O)Nc3ccccc3[N+](=O)[O-])n(-c3ccc([N+](=O)[O-])cc3[N+](=O)[O-])n2)ccc1O
> 100 µM: TGI (ACHN renal) | TGI (CCRF-CEM leukemia) | TGI (HOP-92 NSCLC) | TGI (K-562 leukemia) | TGI (RPMI-8226 leukemia) | TGI (SK-MEL-2 melanoma) | TGI (SK-MEL-5 melanoma) | TGI (U251 CNS) | TGI (UO-31 renal)
inactive: GI50 (ACHN renal) > 10 µM | GI50 (CCRF-CEM leukemia) > 100 µM | GI50 (HOP-92 NSCLC) > 100 µM | GI50 (K-562 leukemia) > 10 µM | GI50 (RPMI-8226 leukemia) > 100 µM | GI50 (SK-MEL-2 melanoma) > 100 µM | GI50 (SK-MEL-5 melanoma) > 100 µM | GI50 (U251 CNS) > 100 µM | GI50 (UO-31 renal) > 100 µM

Cc1nc2cc(N)c(Cl)cc2[nH]1
> 100 µM: TGI (ACHN renal) | TGI (CCRF-CEM leukemia) | TGI (K-562 leukemia) | TGI (RPMI-8226 leukemia) | TGI (SK-MEL-2 melanoma) | TGI (SK-MEL-5 melanoma) | TGI (T-47D breast) | TGI (U251 CNS) | TGI (UO-31 renal)

CC(O[Si](C)(C)C)C1C=CC(C)n2c(=O)n(-c3ccccc3)c(=O)n21 (stereo not drawn)
> 100 µM: TGI (K-562 leukemia) | TGI (RPMI-8226 leukemia) | TGI (SK-MEL-2 melanoma) | TGI (SK-MEL-5 melanoma) | TGI (U251 CNS) | TGI (UO-31 renal)

CC1=C(c2cc(C(=O)Nc3nccs3)nc(NC#N)n2)Sc2ccccc2N1
> 100 µM: TGI (ACHN renal) | TGI (CCRF-CEM leukemia) | TGI (HOP-92 NSCLC) | TGI (K-562 leukemia) | TGI (RPMI-8226 leukemia) | TGI (SK-MEL-2 melanoma) | TGI (SK-MEL-5 melanoma) | TGI (U251 CNS) | TGI (UO-31 renal)

CC1(C)OC(=O)C(=C2CC(c3ccccc3)c3ccccc32)C(=O)O1 (stereo not drawn)
> 100 µM: TGI (ACHN renal) | TGI (CCRF-CEM leukemia) | TGI (HOP-92 NSCLC) | TGI (K-562 leukemia) | TGI (RPMI-8226 leukemia) | TGI (SK-MEL-5 melanoma) | TGI (U251 CNS) | TGI (UO-31 renal)

Cc1cc2c(c(N)c1C)C(=O)c1ccccc1C2=O
58.9 µM: TGI (HOP-92 NSCLC)
96.6 µM: TGI (U251 CNS)
33.1 µM: TGI (UO-31 renal)
> 100 µM: TGI (ACHN renal) | TGI (CCRF-CEM leukemia) | TGI (K-562 leukemia) | TGI (RPMI-8226 leukemia) | TGI (SK-MEL-2 melanoma) | TGI (SK-MEL-5 melanoma)

Cc1nn(-c2ccc(Br)cc2)c(C)c1CC(=O)c1cc(O)ccc1O
inactive: GI50 (ACHN renal) 9.16 µM | GI50 (CCRF-CEM leukemia) 19 µM | GI50 (K-562 leukemia) 3.02 µM | GI50 (RPMI-8226 leukemia) 8.21 µM | GI50 (SK-MEL-2 melanoma) 23 µM | GI50 (SK-MEL-5 melanoma) 6.84 µM | GI50 (U251 CNS) 10.1 µM | GI50 (UO-31 renal) 15.9 µM
> 50 µM: TGI (CCRF-CEM leukemia) | TGI (RPMI-8226 leukemia) | TGI (SK-MEL-2 melanoma) | TGI (UO-31 renal)
21.8 µM: TGI (U251 CNS)
24.6 µM: TGI (ACHN renal)
20.3 µM: TGI (SK-MEL-5 melanoma)
29.5 µM: TGI (K-562 leukemia)

CCC/C(=N\NC(=O)c1cc2ccccc2cc1O)C(CC)C(=O)CCC(=O)N(Cc1ccccc1)Cc1ccccc1 (stereo not drawn)
60.9 µM: TGI (SK-MEL-5 melanoma)
> 100 µM: TGI (ACHN renal) | TGI (HOP-92 NSCLC) | TGI (RPMI-8226 leukemia) | TGI (U251 CNS) | TGI (UO-31 renal)
69.9 µM: TGI (K-562 leukemia)
41.7 µM: TGI (CCRF-CEM leukemia)
77.8 µM: TGI (SK-MEL-2 melanoma)

COC(=O)NN1C(C)=C(C(=O)OC)C2(CCOC2=O)C1(C)O (stereo not drawn)
> 100 µM: TGI (ACHN renal) | TGI (CCRF-CEM leukemia) | TGI (HOP-92 NSCLC) | TGI (K-562 leukemia) | TGI (RPMI-8226 leukemia) | TGI (SK-MEL-2 melanoma) | TGI (U251 CNS) | TGI (UO-31 renal)

c1ccc(C2N3CCCCC3[C@@H]3c4[nH]c5ccccc5c4CCN23)cc1 (stereo partly drawn)
> 100 µM: TGI (ACHN renal) | TGI (CCRF-CEM leukemia) | TGI (HOP-92 NSCLC) | TGI (K-562 leukemia) | TGI (RPMI-8226 leukemia) | TGI (SK-MEL-2 melanoma) | TGI (SK-MEL-5 melanoma) | TGI (U251 CNS) | TGI (UO-31 renal)
